Measurements reported in patent US8017637B2, “Inhibitors of cdc phosphatases” (Ipsen Pharma S.A.S., priority 2004, dated 2011).
pIC50: −log10 of the molar value.

Tests used:
[1] = molecular target: T1, purified recombinant enzyme Cdc25-C (MBP-Cdc25C) (Homo sapiens, UniProt P30307); assay: Measurement of the phosphatase activity of the purified recombinant enzyme Cdc25C (OMFP dephosphorylation, fluorescence); assay type: biochemical; conditions: OMFP 500 μM, 4 hours at 30° C.
T1 construct: made in house
T1 sequence (P30307 1-473): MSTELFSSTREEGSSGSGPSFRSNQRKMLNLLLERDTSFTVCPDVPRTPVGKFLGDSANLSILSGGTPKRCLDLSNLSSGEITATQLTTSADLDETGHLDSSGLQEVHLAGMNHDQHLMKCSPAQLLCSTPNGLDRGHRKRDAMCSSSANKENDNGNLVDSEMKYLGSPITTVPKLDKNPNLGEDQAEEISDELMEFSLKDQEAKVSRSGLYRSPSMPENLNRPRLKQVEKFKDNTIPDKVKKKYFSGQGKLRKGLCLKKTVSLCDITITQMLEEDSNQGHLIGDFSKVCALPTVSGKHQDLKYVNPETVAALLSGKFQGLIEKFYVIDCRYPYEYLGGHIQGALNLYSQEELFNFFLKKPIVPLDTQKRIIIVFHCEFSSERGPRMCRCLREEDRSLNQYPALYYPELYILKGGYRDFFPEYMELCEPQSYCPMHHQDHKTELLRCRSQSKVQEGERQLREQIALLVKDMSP
Description: i) Measurement of the Phosphatase Activity of the Purified Recombinant Enzyme Cdc25C
The phosphatase activity of the protein MBP-Cdc25C is evaluated by the dephosphorylation of 3-O-methylfluorescein-phosphate (OMFP) to 3-O-methylfluorescein (OMF) with a determination of the fluorescence at 475 nm of the reaction product. This test makes it possible to identify inhibitors of the recombinant enzyme cdc25. The preparation of the fusion protein MBP-Cdc25C is described in the Patent Application PCT WO 01/44467.
The reaction is carried out in 384-well plate format at a final volume of 50 μl. The protein MBP-Cdc25C (prepared as described above) is preserved in the following elution buffer: 20 mM Tris-HCl pH 7.4; 250 mM NaCl; 1 mM EDTA; 1 mM of dithiothreitol (DTT); 10 mM maltose. It is diluted to a concentration of 60 μM in the following reaction buffer: 50 mM Tris-HCl pH 8.2; 50 mM NaCl; 1 mM DTT; 20% glycerol. Measurement of the background noise is carried out with the buffer without the addition of the enzyme. The products are tested at decreasing concentrations starting from 40 μM. The reaction is initiated by the addition of an OMFP solution at 500 μM final (prepared extemporaneously from a 12.5 mM stock solution in 100% DMSO (Sigma #M2629)). After 4 hours at 30° C. in a single-use 384-well plate, the fluorescence measured at OD 475 nm is read using a Victor^2 plate reader (EGG-Wallac). The determination of the concentration inhibiting the enzyme reaction by 50% is calculated from three independent experiments. Only the values contained in the linear part of the sigmoid are retained for linear regression analysis.

[2] = tested on: Mia-Paca2 lines (human pancreatic cancer cells); assay: Anti-proliferative activity, WST1 colorimetric test, Mia-Paca2 cells; assay type: cell-based; conditions: MIA PaCa-2, 96 hours treatment, up to 10 μM, read-out: IC50 on the cell proliferation of the Mia-Paca2 lines
Description: (§1) ii) Characterization of Anti-Proliferative Activity:
(§2) By way of example, the effect of a treatment by the compounds of the examples described previously on two lines of human Mia-Paca2 and DU145 cells will be studied. The cell lines DU145 (human prostate cancer cells) and Mia-PaCa2 (human pancreatic cancer cells) were acquired from the American Tissue Culture Collection (Rockville, Md., USA). The cells placed in 80 μl of Dulbecco's Modified Eagle medium (Gibco-Brl, Cergy-Pontoise, France) completed with 10% foetal calf serum inactivated by heating (Gibco-Brl, Cergy-Pontoise, France), 50,000 units/l of penicillin and 50 mg/l streptomycin (Gibco-Brl, Cergy-Pontoise, France), and 2 mM of glutamine (Gibco-Brl, Cergy-Pontoise, France) were seeded on a 96-well plate on day 0. The cells were treated on day 1 for 96 hours at increasing concentrations of each of the compounds to be tested up to 10 μM. At the end of the of this period, quantification of the cell proliferation is evaluated by a colorimetric test based on the cleavage of the tetrazolium salt WST1 by the mitochondrial dehydrogenases in the viable cells leading to the formation of formazan (Boehringer Mannheim, Meylan, France). These tests are carried out in duplicate with 8 determinations per concentration tested. For each compound to be tested, the values included in the linear part of the sigmoid were retained for linear regression analysis and used in order to estimate the inhibitory concentration IC50. The products are solubilized in dimethylsulphoxide (DMSO) at to 10^−2M and finally used in culture with 0.1% DMSO.

[3] = tested on: DU-145 lines (human prostate cancer cells); assay: Anti-proliferative activity, WST1 colorimetric test, DU145 cells; assay type: cell-based; conditions: 96 hours treatment, up to 10 μM, read-out: IC50 on the cell proliferation of the DU-145 lines
Description: as §1, §2

Row | SMILES | pIC50 [1] | pIC50 [2] | pIC50 [3] | melting point [°C]
1 | COc1ccc(NC(=O)c2nc3c(s2)C(=O)C=C(NCCCN(C)CCCNC2=CC(=O)c4sc(C)nc4C2=O)C3=O)cc1 [Example 41, N-(4-methoxyphenyl)-5-{[3-(methyl{3-[(2-methyl-4,7-dioxo-4,7-dihydro-1,3-benzothiazol-5-yl)amino]propyl}amino)propyl]amino}-4,7-dioxo-4,7-dihydro-1,3-benzothiazole-2-carboxamide] | ≥ 6.00 | ≥ 5.00 | ≥ 5.00 | 141 to 142
2 | Cc1nc2c(s1)C(=O)C(NCCCN(C)CCCNC1=CC(=O)c3sc(C(=O)N4CCN(C(=O)C5CCCO5)CC4)nc3C1=O)=CC2=O (stereo not drawn) [Example 42, 5-{[3-(methyl{3-[(2-methyl-4,7-dioxo-4,7-dihydro-1,3-benzothiazol-6-yl)amino]propyl}amino)propyl]amino}-2-{[4-(tetrahydrofuran-2-ylcarbonyl)piperazin-1-yl]carbonyl}-1,3-benzothiazole-4,7-dione] | ≥ 6.00 | ≥ 5.00 | ≥ 5.00 | 121 to 122
3 | CCNC(=O)c1nc2c(s1)C(=O)C=C(NCCCN(C)CCCNC1=CC(=O)c3sc(C)nc3C1=O)C2=O [Example 43, N-ethyl-5-{[3-(methyl{3-[(2-methyl-4,7-dioxo-4,7-dihydro-1,3-benzothiazol-5-yl)amino]propyl}amino)propyl]amino}-4,7-dioxo-4,7-dihydro-1,3-benzothiazole-2-carboxamide] | ≥ 6.00 | ≥ 5.00 | ≥ 5.00 | 107 to 108
